Test: Cytotoxicity against human MDA-MB-231 cells assessed as cell viability at 25 to 100 uM after 72 hrs by MTT assay relative to control
Format: cell-based
Conditions: read-out: Activity

Compound	viability at 72 h, up to 100 µM [%]
NC(=S)Nc1nn2c(=O)[nH]c(=S)[nH]c2c1Cc1ccc(-c2ccccc2)cc1	80
O=c1[nH]c(=O)c2cc[nH]c2[nH]1 [7-DEAZAXANTHINE]	80
NC(=S)Nc1nn2c(=O)[nH]c(=S)[nH]c2c1Cc1ccc(Oc2ccccc2)cc1	80
NC(=S)Nc1nn2c(=O)[nH]c(=S)[nH]c2c1Cc1cccc2ccccc12	80
NC(=S)Nc1nn2c(=O)[nH]c(=S)[nH]c2c1Cc1ccc(C(F)(F)F)cc1	80
O=c1[nH]c(=S)[nH]c2cc(-c3ccc(Cl)c(Cl)c3)nn12	80
